# According to patent publication US6329363A, “Cephalosporin antibiotics” (Eli Lilly and Company, priority 1998, dated 2001):
# Key:
# S.aureus ATCC 29213 = experiment: MIC, in vitro activity vs. S.aureus ATCC 29213; assay type: cell-based, Staphylococcus aureus; set-up: unit not given beside the values; settings: Incubated at 37° C. overnight
# Procedure: (§1) Table 2 summarizes the minimal inhibitory concentrations (MIC's) at which illustrative formula I compounds and cephalothin inhibit certain microorganisms associated with mastitis, such as Staphylococcus aureus 10092 (Newbould strain).
# (§2) ^a Incubated at 37° C. overnight
# S.aureus 174 C = experiment: MIC, in vitro activity vs. S.aureus 174 C; assay type: cell-based, Staphylococcus aureus; set-up: unit not given beside the values; settings: Incubated at 37° C. overnight
# Procedure: as §1, §2
# [1] = test system: Staphylococcus aureus 10092 (Newbould strain); experiment: MIC, in vitro activity vs. S.aureus 10092; assay type: cell-based; set-up: unit not given beside the values; settings: Incubated at 37° C. overnight
# Procedure: as §1, §2
# S.aureus F1C = experiment: MIC, in vitro activity vs. S.aureus F1C; assay type: cell-based, Staphylococcus aureus; set-up: unit not given beside the values; settings: Incubated at 37° C. overnight
# Procedure: as §1, §2
# [2] = test system: Streptococcus uberis 166 L; experiment: MIC, in vitro activity vs. Streptococcus uberis 166 L; assay type: cell-based; set-up: unit not given beside the values; settings: Incubated at 37° C. overnight
# Procedure: as §1, §2
# Streptococcus agalactiae = experiment: MIC, in vitro activity vs. Streptococcus agalactiae; assay type: cell-based; set-up: unit not given here; settings: Incubated at 37° C. overnight
# Procedure: as §1, §2
# [3] = test system: Strepcococcus dysgalactiae; experiment: MIC, in vitro activity vs. Streptococcus dysgalactiae; assay type: cell-based; set-up: unit not given here; settings: Incubated at 37° C. overnight
# Procedure: as §1, §2
# [4] = test system: Staphylococcus aureus 10092 (Newbould); experiment: Efficacy in induced Staphylococcus aureus mastitis model in lactating goats; assay type: in vivo; settings: 8 halves per compound, 2 consecutive milkings 12 hours apart, approximately 25 mg/5 mL dose in peanut oil, from 36 hours post-challenge
# Excerpt: Sixteen lactating goats were selected based on the absence of Staphylococcus aureus in pre-challenge milk cultures. Maintenance ration was provided to the animals throughout the study. The goats were milked twice each day using a portable goat milker.
# Milk samples were collected during the morning milking. One day prior to challenge, milk culture samples were collected from each half of the test animals to determine if there was a pre-existing infection. Additionally, a sample was collected from each half for Somatic Cell Count (SCC) determination. A milk culture sample and a sample for SCC were collected from each half 24 hours post-challenge and on Days +4 to +6, +8, +11, +13, and +15.
# Udder scoring was performed during each milking wing table:
# General health observations and body temperature were recorded once a day following milking during the challenge and treatment periods.
# Milk samples were submitted for analysis for SCC using an electronic somatic cell counting system.
# Milk culture samples were assayed for bacterial culture by plating 1.0 mL and 0.1 mL of the milk sample directly onto duplicate blood agar plates. Additionally, dilutions 10^-1 of the milk sample were plated. Plates were incubated overnight at 37° C.
# Staphylococcus aureus 10092 (Newbould) was used as the challenge strain. The challenge culture was grown in Tryptic Soy Broth (TSB) from a lyovial stock overnight (16 hours) at 37° C. TSB (100 mL) was inoculated with 1 mL of the overnight culture and incubated at 37° C. with shaking for 4 hours. The culture was centrifuged at 9000 rpm for 10 minutes at 10° C.; supernatant was removed and the pellet was resuspended in phosphate buffered saline (PBS). Optimum O.D. reading at 650 nm was approximately 0.035. A 10-fold dilution series was prepared with saline to determine the CFU/mL, plating 10^-5, 10^-6, and 10^-7 dilutions onto duplicate blood agar plates. The 10^-7 dilution (approximately 10 CFU/mL) was used for the challenge material, yielding a challenge of 50 CFU/half with a 5-mL infusion.
# Sixteen goats were used for the trial. During a one day pre-challenge period, milk samples were collected and temperatures were taken during the morning milking. Milk/udder evaluations were documented during the morning and afternoon milkings.
# Staphylococcus aureus 10092 was infused into both halves in each of the goats. The goats were challenged following the morning milking and milked in the afternoon on the day of challenge. The challenge inoculum volume was 5 mL/half containing approximately 50 CFU S. aureus.
# For the 24 hr post-challenge period milk samples were collected during the morning milking, and milk/udder evaluations made during the morning and afternoon milking.
# Treatment was started at 36 hours post-challenge. Milk samples were collected for culture and SCC 24 hours post-challenge, prior to the morning milking, and the treatment period started following the afternoon milking.
# Eight halves (4 goats) each were treated for 2 consecutive milkings 12 hours apart, following milking. Each designated compound was formulated in peanut oil with […] of compound per 5 g of formulation to give approximately 25 mg/5 mL dose.
# Following treatment, the goats were milked and observed for 15 days. Milk samples were collected on Days +4 to +6, +8, +11, +13, and +15 to determine if the infection had cleared.
# Establishment of mastitis was determined by bacterial culturing, severity of udder scoring, somatic cell count results, and body temperature.
# On Days +2 to +6, milk samples were collected for a calorimetric assay to determine whether the antibiotic was still present in the milk.
# [5] = test system: Streptococcus uberis 150 L; experiment: MIC, in vitro activity vs. Streptococcus uberis 150 L; assay type: cell-based; set-up: unit not given beside the values; settings: Incubated at 37° C. overnight
# Procedure: as §1, §2
# [6] = test system: pasteurella multocida 108E (bovine); experiment: MIC against Gram-negative organisms: pasteurella multocida 108E (bovine); assay type: cell-based; settings: Incubated at 37° C. overnight; unit assumed
# Procedure: (§3) The formula I compounds are also active against certain Gram-negative species.
# as §2
# [7] = test system: pasteurella multocida ATCC 12945; experiment: MIC against Gram-negative organisms: pasteurella multocida ATCC 12945; assay type: cell-based; settings: Incubated at 37° C. overnight; unit assumed
# Procedure: as §3, §2
# [8] = test system: pasteurella multocida 1051 (swine); experiment: MIC against Gram-negative organisms: pasteurella multocida 1051 (swine); assay type: cell-based; settings: Incubated at 37° C. overnight; unit assumed
# Procedure: as §3, §2
# [9] = test system: pasteurella multocida 10,102 (bovine); experiment: MIC against Gram-negative organisms: pasteurella multocida 10,102 (bovine); assay type: cell-based; settings: Incubated at 37° C. overnight; unit assumed
# Procedure: as §3, §2
# [10] = test system: Pasteurella haemolytica 114F (bovine); experiment: MIC against Gram-negative organisms: Pasteurella haemolytica 114F (bovine); assay type: cell-based; settings: Incubated at 37° C. overnight; unit assumed
# Procedure: as §3, §2
# [11] = test system: Pasteurella haemolytica 128K (bovine); experiment: MIC against Gram-negative organisms: Pasteurella haemolytica 128K (bovine); assay type: cell-based; settings: Incubated at 37° C. overnight; unit assumed
# Procedure: as §3, §2
# [12] = test system: Pasteurella haemolytica 129R (bovine); experiment: MIC against Gram-negative organisms: Pasteurella haemolytica 129R (bovine); assay type: cell-based; settings: Incubated at 37° C. overnight; unit assumed
# Procedure: as §3, §2
# Salmonella typhimurium = experiment: MIC against Gram-negative organisms: Salmonella typhimurium; assay type: cell-based; settings: Incubated at 37° C. overnight; unit assumed
# Procedure: as §3, §2
# Escherichia coli = experiment: MIC against Gram-negative organisms: Escherichia coli; assay type: cell-based; settings: Incubated at 37° C. overnight; unit assumed
# Procedure: as §3, §2
SMILES,MIC vs. S.aureus ATCC 29213 (S.aureus ATCC 29213),MIC vs. S.aureus 174 C (S.aureus 174 C),MIC vs. S.aureus 10092 [1],MIC vs. S.aureus F1C (S.aureus F1C),MIC vs. Streptococcus uberis 166 L [2],MIC vs. Streptococcus agalactiae (Streptococcus agalactiae),MIC vs. Strepcococcus dysgalactiae [3],% Bacteriologic Cures [4] [%],MIC vs. Streptococcus uberis 150 L [5],"MIC, pasteurella multocida 108E (bovine) [6] [µg/mL]","MIC, pasteurella multocida ATCC 12945 [7] [µg/mL]","MIC, pasteurella multocida 1051 (swine) [8] [µg/mL]","MIC, pasteurella multocida 10,102 (bovine) [9] [µg/mL]","MIC, Pasteurella haemolytica 114F (bovine) [10] [µg/mL]","MIC, Pasteurella haemolytica 128K (bovine) [11] [µg/mL]","MIC, Pasteurella haemolytica 129R (bovine) [12] [µg/mL]","MIC, Salmonella typhimurium (Salmonella typhimurium) [µg/mL]","MIC, Escherichia coli (Escherichia coli) [µg/mL]"
Cc1nnc(SCC2=C(C(=O)O)N3C(=O)[C@@H](NC(=O)CSc4c(F)c(F)c(F)c(F)c4F)[C@H]3SC2)s1 [Compound 3],0.125,0.0625,0.625,0.125,0.0156,0.0156,0.0156,50,,,,,,,,,,
Cc1nnc(SCC2=C(C(=O)O)N3C(=O)[C@@H](NC(=O)CSc4ccc(S(=O)(=O)C(F)(F)F)cc4)[C@H]3SC2)s1 [Compound 4],0.0625,0.0312,0.0312,0.125,,0.0156,,71,,,,,,,,,,
Cc1nnc(SCC2=C(C(=O)O)N3C(=O)[C@@H](NC(=O)CSc4ccc(C(F)(F)F)cc4)[C@H]3SC2)s1 [Compound 2],0.25,0.125,0.125,0.25,0.125,0.125,0.0625,83,0.125,,,,,,,,,
Cc1nnc(SCC2=C(C(=O)O)N3C(=O)[C@@H](NC(=O)CSc4c(F)c(F)c(C(F)(F)F)c(F)c4F)[C@H]3SC2)s1 [Compound 5],0.0625,0.0625,0.0625,0.125,,0.0156,0.0625,33,0.0156,,,,,,,,,
Cc1nnc(SCC2=C(C(=O)O)N3C(=O)[C@@H](NC(=O)Cc4c(F)c(F)c(F)c(F)c4F)[C@H]3SC2)s1 [Compound 6],0.125,0.125,0.125,0.25,0.0156,0.0625,0.0312,60,0.0625,,,,,,,,,
"CC(=O)OCC1=C(C(=O)O)N2C(=O)[C@@H](NC(=O)Cc3cccs3)[C@H]2SC1 [Cephalothin, reference compound]",0.25,0.25,,0.25,0.0625,0.125,,,0.125,0.5,0.25,0.25,0.5,1,0.5,1,4,8
